According to ChEMBL document CHEMBL1201862, “PubChem BioAssay data set” (2004):
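96-well plates; 48 h exposure; 5 concentrations. Endpoints by linear interpolation between flanking doses. Not reached: highest tested concentration assigned. GI50 marks 50% less growth.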 The source made the active and inactive calls. Cut-off read from the data, not from the text of the source: active = GI50 up to about 1.1 µM and inactive = higher.

Key:
Assay in all cases: DTP human tumour cell line panel, 48 h
[1] = test system: DLD-1
[2] = test system: DMS-273
[3] = test system: SNB-78
[4] = test system: M19-MEL
[5] = test system: DMS-114
[6] = test system: KM-20L2
[7] = test system: HOP-18
[8] = test system: RXF 631
[9] = test system: XF498

Row | SMILES | GI50 [1] | GI50 [2] | GI50 [3] | GI50 [4] | GI50 [5] | GI50 [6] | GI50 [7] | GI50 [8] | GI50 [9]
1 | COc1ccc2[nH]c3c(C)c4cc[n+](C)cc4c(C)c3c2c1 | 1.06 µM (active) | 0.838 µM (active) | 0.406 µM (active) | 0.661 µM (active) | 0.219 µM (active) | 3.3 µM (inactive) | 3.95 µM (inactive) |  | 
2 | COc1ccc(/C=C/c2cc(OC)c(OCc3ccccc3)c(OC)c2)cc1 | 45.6 µM (inactive) | 71.6 µM (inactive) | > 100 µM (inactive) | > 100 µM (inactive) | 68.4 µM (inactive) | > 100 µM (inactive) |  | 48.3 µM (inactive) | > 100 µM (inactive)
3 | Nc1ncnc2c1ncn2C1CCC(CO)O1 (stereo not drawn) | > 100 µM (inactive) | > 100 µM (inactive) | > 100 µM (inactive) | > 100 µM (inactive) | > 55.6 µM (inactive) | > 100 µM (inactive) | > 100 µM (inactive) |  | > 90.8 µM (inactive)
4 | Nc1nc(=O)[nH]c2c1cnn2C1CCCCO1 (stereo not drawn) | 62.7 µM (inactive) | > 100 µM (inactive) | > 100 µM (inactive) |  |  | > 100 µM (inactive) | > 100 µM (inactive) | > 100 µM (inactive) | > 100 µM (inactive)
5 | Nc1nc(SCc2ccccc2Cl)c2[nH]cnc2n1 | 69 µM (inactive) | 41 µM (inactive) | > 100 µM (inactive) | > 100 µM (inactive) | 40.8 µM (inactive) | > 100 µM (inactive) |  |  | 
6 | Cc1cccc(C(=O)c2cccc3ccccc23)c1C(=O)O | > 100 µM (inactive) | > 100 µM (inactive) | > 100 µM (inactive) | > 100 µM (inactive) | 3.24 µM (inactive) | > 100 µM (inactive) | 50.9 µM (inactive) | > 100 µM (inactive) | > 100 µM (inactive)
7 | O=c1c2cc3c(=O)n(CCc4ccccc4CO)c(=O)c3cc2c(=O)n1CCc1ccccc1CO | > 100 µM (inactive) | > 100 µM (inactive) | > 100 µM (inactive) | > 100 µM (inactive) | > 100 µM (inactive) |  |  |  | > 100 µM (inactive)
8 | C=C(N=[N+]=[N-])c1cn(C2CC(O)C(CO)O2)c(=O)[nH]c1=O (stereo not drawn) | > 100 µM (inactive) | > 100 µM (inactive) | > 100 µM (inactive) | > 100 µM (inactive) | > 100 µM (inactive) | > 100 µM (inactive) | > 100 µM (inactive) |  | > 100 µM (inactive)
9 | C=CCc1cc(OC)c2c(c1)C(OC(C)=O)CC(c1ccc(OC)c(OC)c1)O2 (stereo not drawn) | > 100 µM (inactive) | > 100 µM (inactive) | > 100 µM (inactive) | > 100 µM (inactive) | > 100 µM (inactive) | > 100 µM (inactive) |  |  | 
10 | CCOC(=O)C(=O)NCCCN1CCOCC1 | > 100 µM (inactive) | > 100 µM (inactive) | > 100 µM (inactive) | > 100 µM (inactive) | > 100 µM (inactive) | > 100 µM (inactive) | > 100 µM (inactive) | > 100 µM (inactive) | > 100 µM (inactive)
11 | O=[N+]([O-])c1ccc(COc2cccc3cccnc23)cc1 | 13.9 µM (inactive) | 4.53 µM (inactive) | 38.2 µM (inactive) | 15.1 µM (inactive) | 2.19 µM (inactive) | 33.3 µM (inactive) | 31.5 µM (inactive) | 13.9 µM (inactive) | 19.9 µM (inactive)
12 | CCC(C)CN1C(=O)NC(Cc2ccccc2)C1=O (stereo not drawn) | > 100 µM (inactive) | > 100 µM (inactive) | > 100 µM (inactive) | > 100 µM (inactive) | > 100 µM (inactive) | > 100 µM (inactive) | 0.119 µM (active) |  | > 100 µM (inactive)
13 | O=C(Nc1ccc(Cl)cc1Cl)/C(Cl)=C1/Sc2ccccc2NC1=O | 35.4 µM (inactive) |  | 44.9 µM (inactive) | 37.8 µM (inactive) | 20.1 µM (inactive) | 61.9 µM (inactive) |  |  | 1.32 µM (inactive)
14 | CC(C)=CC(=O)Cc1nc2ccccc2[nH]c1=O | > 100 µM (inactive) | > 100 µM (inactive) | > 100 µM (inactive) | > 100 µM (inactive) |  | > 100 µM (inactive) | 37 µM (inactive) | > 100 µM (inactive) | 
15 | COC(=O)c1ccccc1NC(=O)C(=O)CC(=O)CC(c1ccccc1)c1c(O)c2ccccc2oc1=O (stereo not drawn) | > 100 µM (inactive) |  |  | > 100 µM (inactive) | > 100 µM (inactive) | > 100 µM (inactive) |  | > 100 µM (inactive) | 
16 | C#CCC1(C(=O)OCC)C(=O)c2ccccc2N(C)C1=O (stereo not drawn) | > 100 µM (inactive) | > 100 µM (inactive) | > 100 µM (inactive) | > 100 µM (inactive) | > 100 µM (inactive) | > 100 µM (inactive) | > 100 µM (inactive) | > 100 µM (inactive) | 26.7 µM (inactive)
17 | C/C(CCn1[nH]c(=O)ccc1=O)=N\NC(=O)C(=O)NN | > 100 µM (inactive) | > 100 µM (inactive) |  | > 100 µM (inactive) |  | > 100 µM (inactive) | > 100 µM (inactive) | > 100 µM (inactive) | > 100 µM (inactive)
18 | O=C(O)[C@@H](NS(=O)(=O)c1ccc(F)cc1)c1ccccc1 | > 100 µM (inactive) | > 100 µM (inactive) | > 100 µM (inactive) | > 100 µM (inactive) | > 100 µM (inactive) | > 100 µM (inactive) | > 100 µM (inactive) |  | > 100 µM (inactive)
